# Experimental data: patent publication US20130195926A1, “MODULATION OF NITRIC OXIDE SIGNALING TO NORMALIZE TUMOR VASCULATURE” (The General Hospital Corporation, priority 2007, published 2013)
# Experiments:
# nNOS = experiment: Western blot of nNOS knockdown in U87 tumors grown in cranial windows; type: in vivo; conditions: U87 tumors in cranial windows in Rag-1-/- mice
# Protocol: The stably transfected cells were selected with 80 μg/ml of hygromycin B. The expression of nNOS protein in U87 tumor cells and tissues was determined by'Western blot analysis. Cultured U87MG cells washed with PBS and U87MG tumors homogenized by a tissue grinder were solubilized in 40 mM Tris-HCl, pH 6.8, 2% SDS, 10% glycerol, 1% β-mercaptoethanol, 0.01% bromophenol blue with one Complete Mini Protease Inhibitor Cocktail tablet (Roche Diagnostics) per 50 ml buffer.
# Equal amounts of 60 micrograms of protein per sample were separated on 7.5% SDS polyacrylamide gels, transferred onto polyvinylidene fluoride membrane (Millipore), incubated with primary antibodies followed by secondary antibodies (the same antibodies used in immunohistochemistry studies. See Immunohistochemistry methods below), and detected using enhanced chemiluminescence (GE Healthcare) by exposure on autoradiography films (Kodak) (Xu, L., et al. 2005 Cancer Res. 65, 5711-5719; Canneliet, P., et al. 1998 Nature 394, 485-490; Xu, L., et al. 2002 Journal of Biological Chemistry 277, 11368-11374 (2002); and Xu, L., et al. 2004 Clinical Cancer Research 10, 701-707).
# Recombination activating gene 1 (Rag-1^−/−) mice backcrossed to C57BL/6 background or severe combined immunodeficiency (SCID) mice, bred and maintained in an gnotobiotic animal facility, were used. To obtain source tumor tissue, U87 tumor cells in culture (1×10^6 cells) were injected subcutaneously into Rag-1^−/− or SCID mice matching the recipient mice. When the tumor reached about 8 mm in diameter, it was excised after euthanasia and a small piece (about 1 mm^3) of viable tumor tissue was implanted into a cranial window or subcutaneously into the calf area of the right hindlegs of the mice as previously described (Kashiwagi, S., et al. 2005 J. Clin. Invest. 115, 1816-1827; Kozin, S. V., et al. 2001 Cancer Research 61, 39-44). […]
# U87 with nNOS shRNA (shRNA58, shRNA97, and shRNA150) were grown in cranial windows in Rag-1^−/− mice. Expression of nNOS in these tumors was determined by Western blot analysis. […]
# U87 tumors [1] = experiment: Fractionated radiation therapy of U87 tumors grown in the hind leg; type: in vivo, mice; conditions: 3 daily fractions of 8 Gy, compared to irradiated U87MG tumor bearing animals
# Protocol: When tumors grown in the hindleg reached about 100 mm^3, animals were randomly assigned to radiation or control group (day 0). In the radiation groups, tumors were locally irradiated with three daily fractions, 8 Gy each, using a ^137Cs gamma irradiator (Hranitzky, E. B., et al. 1973 Radiology 107, 641-644) at a dose rate of approximately 5 Gy/min. The details of irradiation are described elsewhere (Kozin, S. V., et al. 2001 Cancer Research 61, 39-44). Tumor size was measured with a caliper at least every other day. The time taken for tumor to increase in volume 2×, 3×, 4×, 5×, 6×, and 7× of the initial volume (V0) was determined. Tumor growth delay was calculated as the difference of this parameter between irradiated tumors and nonradiated control tumors of the same genotype. Mice were euthanized when the tumors reached 12 mm in diameter. Survival time of individual animals (spontaneous death or by euthanasia at maximum tumor size) was determined after the start of radiation/control treatment.
# The effect of radiation treatment on U87MG, U87-shRNA58 and U87-shRNA150 tumors was determined. Tumors were grown subcutaneously in the hind leg of Rag-1^−/− mice. When tumors reached ˜100 mm^3, they were randomly assigned to control and radiation treatment groups. […] Tumor growth and overall animal survival were monitored. […]
# U87 tumors [2] = experiment: Pimonidazole hypoxia staining and vessel density in U87 tumors grown in the hind leg; type: in vivo, mice; conditions: for positive staining for hypoxia (Hypoxyprobe-1 adducts): subcutaneous hind leg tumors ~100 mm3, Rag-1-/- mice; for vessel density: subcutaneous hind leg tumors, compared to U87MG tumors
# Protocol: To evaluate tumor hypoxia, a hypoxia marker pimonidazole was used (Winkler, F., et al. 2004 Cancer Cell 6, 553-563). Briefly, when tumors grown in the hindleg reached about 100 mm^3, 60 mg/kg pimonidazole was injected i.v. into the mice bearing subcutaneous tumors (100 mm^3) 1 hr before perfusion fixation following biotinylated lectin injection. Blood vessels were stained with a Alexa 488-conjugated streptavidin (Vector Laboratory). Pimonidazole-adducts in hypoxic cells were detected using Hypoxyprobe-1 kit (Millipore) stained with tetramethylrhodamine isothiocyanate (TRITC)-conjugated goat antibody to mouse IgG. Cell nuclei were counter-stained by 4,6-diamidino-2-phenylindole (DAPI). Fluorescent images were taken using confocal laser-scanning microscopy, and vessel density and the pimonidazole-positive hypoxic area were determined using NIH image 1.63 macro (Winkler, F., et al. 2004 Cancer Cell 6, 553-563).
# The macro identified TRITC-pimonidazole positive area and Alexa 488-positive perfused vessel area and binarized them at the same threshold. The percent of pimonidazole positive area to the total area was determined, and then the number and the perimeters of the binarized vascular areas were quantified on image J software. These parameters were determined in three-five photographic areas from each tumor (630×630 μm^2 each).
# The extent of hypoxia was determined in U87MG, U87-shRNA58, and U87-shRNA150 tumors utilizing a redox marker pimonidazole (Hypoxyprobe™-1 Kit, Millipore). To determine the level of hypoxia during a commonly used experimental radiation treatment, tumors were grown to ˜100 mm^3 subcutaneously in the hind leg of Rag-1^−/− mice. […] In nNOS silenced U87-shRNA58 tumors (U87-shRNA58 and U87-shRNA150), most of tumor cells have blood vessels in close proximity, and positive staining for hypoxia was hardly seen (FIG. 9A). In agreement with previous intravital observations in the cranium, increased vessel density was found in U87-shRNA58 and U87-shRNA150 tumors, as compared to U87MG tumors (FIG. 9B-C). Improved vascular morphology and function induced by the selective vascular localization of NO alleviate tumor tissue hypoxia (FIG. 9D). A reduction in hypoxia inducible factor-1α (HIF-1α) protein levels was also observed in the U87-shRNA58 and U87-shRNA150 tumors, as compared to U87MG tumors (FIG. 9E).
Substance,Knockdown efficiency of nNOS in vivo (nNOS) [%],animal survival after radiation treatment (U87 tumors [1]),positive staining for hypoxia (Hypoxyprobe-1 adducts) (U87 tumors [2]),vessel density (U87 tumors [2])
"shRNA150: short-hairpin RNA for nNOS, GGTCTATCCAATGTCCACA (sense), TGTGGACATTGGATAGACCTT (antisense), in pSilencer 3.1 H-1-hygro",96,Significant extension,hardly seen,increased
"shRNA58: short-hairpin RNA for nNOS, CAAAGAGATCGACACCATC (sense), GATGGTGTCGATCTCTTTGTT (antisense), in pSilencer 3.1 H-1-hygro, stably transfected into U87MG",98,Significant extension,hardly seen,increased
